Numbers after ± are expanded uncertainties.
Test: xn = mol fraction of the nth substance listed
Conditions: 100 kPa, Liquid; for mass density: Vibrating tube method; for viscosity: Falling or rolling sphere viscometry

OCCCO [propan-1,3-diol] + O
Conditions | mass density, 288.15 K [kg/m3] | mass density, 293.15 K [kg/m3] | mass density, 298.15 K [kg/m3] | mass density, 303.15 K [kg/m3] | mass density, 308.15 K [kg/m3] | mass density, 313.15 K [kg/m3] | mass density, 318.15 K [kg/m3] | viscosity, 293.15 K [mPa·s] | viscosity, 298.15 K [mPa·s] | viscosity, 303.15 K [mPa·s]
x2 = 0 | 1056.2 ± 4.3 | 1053.2 ± 4.3 | 1049.9 ± 4.3 | 1046.7 ± 4.3 | 1043.5 ± 4.3 | 1040.4 ± 4.2 | 1037.9 ± 4.2 | 51.55 ± 8.3 | 40.8 ± 6.5 | 32.74 ± 5.3
x2 = 0.0749 | – | – | – | – | – | – | – | 46.34 ± 7.4 | 36.93 ± 5.9 | 29.67 ± 4.8
x2 = 0.1625 | 1056.2 ± 4.3 | 1053.1 ± 4.3 | 1049.7 ± 4.2 | 1046.4 ± 4.2 | 1043.1 ± 4.2 | 1039.9 ± 4.2 | 1037.4 ± 4.2 | 40.76 ± 6.5 | 32.58 ± 5.2 | 26.38 ± 4.2
x2 = 0.1737 | 1056.2 ± 4.3 | 1053.1 ± 4.3 | 1049.7 ± 4.2 | 1046.4 ± 4.2 | 1043.1 ± 4.2 | 1040 ± 4.2 | 1037.4 ± 4.2 | – | – | –
x2 = 0.2386 | 1056.4 ± 4.3 | 1053.3 ± 4.2 | 1049.9 ± 4.2 | 1046.6 ± 4.2 | 1043.2 ± 4.2 | 1040.1 ± 4.2 | 1037.5 ± 4.2 | – | – | –
x2 = 0.239 | – | – | – | – | – | – | – | 35.86 ± 5.8 | 29.01 ± 4.7 | 23.45 ± 3.8
x2 = 0.2519 | 1056.5 ± 4.3 | 1053.4 ± 4.2 | 1049.9 ± 4.2 | 1046.6 ± 4.2 | 1043.3 ± 4.2 | 1040.1 ± 4.2 | 1037.5 ± 4.2 | – | – | –
x2 = 0.3216 | 1056.6 ± 4.3 | 1053.5 ± 4.2 | 1050.1 ± 4.2 | 1046.8 ± 4.2 | 1043.5 ± 4.2 | 1040.2 ± 4.2 | 1037.6 ± 4.2 | – | – | –
x2 = 0.3361 | – | – | – | – | – | – | – | 29.72 ± 4.8 | 24.27 ± 3.9 | 19.97 ± 3.2
x2 = 0.3669 | 1056.4 ± 4.2 | 1053.3 ± 4.2 | 1050 ± 4.2 | 1046.7 ± 4.2 | 1043.3 ± 4.2 | 1040.1 ± 4.2 | 1037.5 ± 4.2 | – | – | –
x2 = 0.4223 | – | – | – | – | – | – | – | 24.46 ± 3.9 | 20.06 ± 3.2 | 16.66 ± 2.7
x2 = 0.4238 | 1056 ± 4.2 | 1053 ± 4.2 | 1049.6 ± 4.2 | 1046.4 ± 4.2 | 1043.1 ± 4.2 | 1039.9 ± 4.2 | 1037.3 ± 4.2 | – | – | –
x2 = 0.4553 | 1055.6 ± 4.2 | 1052.6 ± 4.2 | 1049.3 ± 4.2 | 1046.1 ± 4.2 | 1042.8 ± 4.2 | 1039.6 ± 4.2 | 1037 ± 4.2 | – | – | –
x2 = 0.5075 | 1054.7 ± 4.2 | 1051.8 ± 4.2 | 1048.5 ± 4.2 | 1045.3 ± 4.2 | 1042.1 ± 4.2 | 1038.9 ± 4.2 | 1036.2 ± 4.2 | – | – | –
x2 = 0.5134 | – | – | – | – | – | – | – | 19.25 ± 3.1 | 15.64 ± 2.5 | 13.18 ± 2.1
x2 = 0.5501 | 1053.7 ± 4.2 | 1050.8 ± 4.2 | 1047.6 ± 4.2 | 1044.4 ± 4.2 | 1041.2 ± 4.2 | 1038 ± 4.2 | 1035.4 ± 4.1 | – | – | –
x2 = 0.6009 | 1052.1 ± 4.2 | 1049.2 ± 4.2 | 1046.1 ± 4.2 | 1042.9 ± 4.2 | 1039.7 ± 4.2 | 1036.5 ± 4.2 | 1033.9 ± 4.1 | – | – | –
x2 = 0.6309 | – | – | – | – | – | – | – | 13.16 ± 2.1 | 10.59 ± 1.7 | 8.95 ± 1.4
x2 = 0.653 | 1049.9 ± 4.2 | 1047.1 ± 4.2 | 1043.9 ± 4.2 | 1040.8 ± 4.2 | 1037.6 ± 4.2 | 1034.4 ± 4.1 | 1031.8 ± 4.1 | – | – | –
x2 = 0.7146 | 1046.3 ± 4.2 | 1043.5 ± 4.2 | 1040.4 ± 4.2 | 1037.2 ± 4.2 | 1034 ± 4.1 | 1030.9 ± 4.1 | 1028.4 ± 4.1 | – | – | –
x2 = 0.7446 | – | – | – | – | – | – | – | 7.99 ± 1.3 | 6.43 ± 1 | 5.46 ± 0.88
x2 = 0.7532 | 1043.2 ± 4.2 | 1040.5 ± 4.2 | 1037.4 ± 4.2 | 1034.3 ± 4.1 | 1031.1 ± 4.1 | 1028.1 ± 4.1 | 1025.5 ± 4.1 | – | – | –
x2 = 0.804 | 1038.3 ± 4.2 | 1035.5 ± 4.1 | 1032.6 ± 4.1 | 1029.6 ± 4.1 | 1026.6 ± 4.1 | 1023.5 ± 4.1 | 1021.1 ± 4.1 | – | – | –
x2 = 0.8508 | 1032.1 ± 4.1 | 1029.6 ± 4.1 | 1026.9 ± 4.1 | 1024.1 ± 4.1 | 1021.3 ± 4.1 | 1018.4 ± 4.1 | 1016.1 ± 4.1 | – | – | –
x2 = 0.872 | – | – | – | – | – | – | – | 3.72 ± 0.6 | 3.13 ± 0.5 | 2.78 ± 0.44
x2 = 0.9021 | 1023.5 ± 4.1 | 1021.3 ± 4.1 | 1018.9 ± 4.1 | 1016.6 ± 4.1 | 1014 ± 4.1 | 1011.4 ± 4 | 1009.2 ± 4 | – | – | –
